Among the data in patent US20260207602A1, “EGFR INHIBITORS” (Blueprint Medicines Corporation, priority 2022, published 2026) are IC50 values, retold here.

A value given as a limit tells only on which side of the number the result lay.

For one test, the target named is T1, EGFR (d746-750) (Homo sapiens, UniProt P00533, DEL746-750).
T1 construct: purchased SignalChem E10-122JG
Put plainly: Biochemical EGFR inhibition assay (Caliper mobility shift), EGFR (d746-750). As to conditions: biochemical Caliper mobility shift assay, EGFR Exon 19-del enzyme; read-out: Enz EGFR Exon 19-del IC50. An outline of the steps:
(§1)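 Apparent IC50 from Caliper separation of phospho-peptide from substrate. Conditions: 2.5 µM 5-FAM peptide, 1.0 mM ATP or ATP Km, pH 7.5 HEPES buffer, room temperature, 10–20% conversion, EDTA stop.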

The next test addresses T2, EGFR L858R (Homo sapiens, UniProt P00533, L858R).
T2 construct: purchased SignalChem E10-122BG
Briefly: Biochemical EGFR inhibition assay (Caliper mobility shift), EGFR L858R. Particulars: biochemical Caliper mobility shift assay, EGFR L858R enzyme; read-out: Enz EGFR L858R IC50. A digest of the protocol:
as §1

Test [1] concerns the target intracellular phosphorylation of EGFR (Tyr1068) in PC-9 cells (Homo sapiens, UniProt P00533, DEL746-750). Put plainly: PC-9 pEGFR AlphaLISA assay. In kind it is cell-based. As to conditions: 4 hours incubation, read-out: Phos EGFR PC9 IC50. An outline of the steps:
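PC-9 cells (EGFR del746-750) in phenol-free DMEM/10% FBS, adhered overnight, then exposed to 10-point 4-fold compound dilutions for 4 h at 37 °C. Lysates assayed for pEGFR Tyr1068 by AlphaLISA SureFire Ultra; IC50 from percent pEGFR inhibition vs log concentration.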

intracellular phosphorylation of EGFR (Tyr1068) in PC-9 cells, sequence (P00533 with tags, fused parts or gaps DEL746-750): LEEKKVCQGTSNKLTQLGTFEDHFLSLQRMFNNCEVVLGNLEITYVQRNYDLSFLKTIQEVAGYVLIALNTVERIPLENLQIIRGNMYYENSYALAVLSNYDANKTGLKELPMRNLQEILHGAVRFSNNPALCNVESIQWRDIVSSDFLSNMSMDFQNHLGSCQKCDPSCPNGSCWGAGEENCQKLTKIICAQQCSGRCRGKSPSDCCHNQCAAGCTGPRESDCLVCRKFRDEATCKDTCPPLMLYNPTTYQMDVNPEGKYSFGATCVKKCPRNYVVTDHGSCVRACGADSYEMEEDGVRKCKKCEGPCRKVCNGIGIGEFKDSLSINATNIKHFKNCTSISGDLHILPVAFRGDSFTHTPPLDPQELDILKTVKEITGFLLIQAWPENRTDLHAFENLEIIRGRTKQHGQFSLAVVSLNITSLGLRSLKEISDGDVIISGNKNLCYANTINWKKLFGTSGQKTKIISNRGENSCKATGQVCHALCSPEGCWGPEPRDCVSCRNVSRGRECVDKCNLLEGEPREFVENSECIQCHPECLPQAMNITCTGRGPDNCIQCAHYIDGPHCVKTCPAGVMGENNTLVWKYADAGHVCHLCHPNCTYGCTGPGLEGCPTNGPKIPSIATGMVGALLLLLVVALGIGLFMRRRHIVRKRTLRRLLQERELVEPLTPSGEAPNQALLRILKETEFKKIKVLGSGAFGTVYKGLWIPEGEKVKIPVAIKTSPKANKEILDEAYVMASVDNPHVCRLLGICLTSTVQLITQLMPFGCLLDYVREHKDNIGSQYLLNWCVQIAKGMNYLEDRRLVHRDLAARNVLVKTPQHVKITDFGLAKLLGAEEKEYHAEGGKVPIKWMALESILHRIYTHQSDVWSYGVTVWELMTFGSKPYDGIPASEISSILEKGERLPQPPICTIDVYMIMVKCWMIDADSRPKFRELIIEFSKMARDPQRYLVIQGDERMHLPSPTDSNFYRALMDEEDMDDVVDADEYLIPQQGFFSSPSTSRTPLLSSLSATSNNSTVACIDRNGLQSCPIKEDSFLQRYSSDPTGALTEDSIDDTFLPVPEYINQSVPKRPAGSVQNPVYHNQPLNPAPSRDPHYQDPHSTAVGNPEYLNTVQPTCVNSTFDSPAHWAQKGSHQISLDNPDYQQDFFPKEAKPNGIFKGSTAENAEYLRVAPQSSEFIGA
T2 sequence (P00533 25-1210 L858R): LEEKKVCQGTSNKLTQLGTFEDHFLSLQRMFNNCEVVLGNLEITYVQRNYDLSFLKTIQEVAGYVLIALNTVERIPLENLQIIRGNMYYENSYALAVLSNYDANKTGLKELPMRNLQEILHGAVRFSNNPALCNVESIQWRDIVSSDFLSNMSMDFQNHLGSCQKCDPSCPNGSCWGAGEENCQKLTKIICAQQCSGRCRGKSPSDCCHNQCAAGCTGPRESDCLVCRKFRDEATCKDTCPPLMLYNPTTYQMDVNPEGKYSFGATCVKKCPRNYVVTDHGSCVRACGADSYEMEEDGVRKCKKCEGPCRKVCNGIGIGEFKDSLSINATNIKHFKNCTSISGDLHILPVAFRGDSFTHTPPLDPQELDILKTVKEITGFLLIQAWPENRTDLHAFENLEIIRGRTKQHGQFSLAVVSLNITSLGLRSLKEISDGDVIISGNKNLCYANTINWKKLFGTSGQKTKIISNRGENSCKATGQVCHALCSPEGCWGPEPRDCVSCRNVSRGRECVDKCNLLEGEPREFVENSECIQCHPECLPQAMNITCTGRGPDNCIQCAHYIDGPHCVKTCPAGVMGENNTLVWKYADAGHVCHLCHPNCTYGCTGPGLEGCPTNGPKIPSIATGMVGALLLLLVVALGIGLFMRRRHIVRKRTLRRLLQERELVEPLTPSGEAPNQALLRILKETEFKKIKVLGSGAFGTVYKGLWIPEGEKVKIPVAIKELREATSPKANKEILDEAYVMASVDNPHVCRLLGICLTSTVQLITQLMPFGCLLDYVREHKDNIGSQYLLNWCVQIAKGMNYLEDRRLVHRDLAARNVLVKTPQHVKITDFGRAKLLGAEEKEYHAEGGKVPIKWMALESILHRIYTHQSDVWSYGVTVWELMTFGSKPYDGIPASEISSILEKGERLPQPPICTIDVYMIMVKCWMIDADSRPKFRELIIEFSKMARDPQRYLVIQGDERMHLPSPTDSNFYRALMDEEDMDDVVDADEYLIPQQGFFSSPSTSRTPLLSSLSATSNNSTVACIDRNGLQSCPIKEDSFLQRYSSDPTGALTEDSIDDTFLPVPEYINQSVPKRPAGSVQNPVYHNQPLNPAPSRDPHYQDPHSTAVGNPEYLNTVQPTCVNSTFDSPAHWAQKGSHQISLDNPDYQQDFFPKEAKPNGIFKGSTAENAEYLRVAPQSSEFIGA
T1 sequence (P00533 with tags, fused parts or gaps DEL746-750 limits assumed): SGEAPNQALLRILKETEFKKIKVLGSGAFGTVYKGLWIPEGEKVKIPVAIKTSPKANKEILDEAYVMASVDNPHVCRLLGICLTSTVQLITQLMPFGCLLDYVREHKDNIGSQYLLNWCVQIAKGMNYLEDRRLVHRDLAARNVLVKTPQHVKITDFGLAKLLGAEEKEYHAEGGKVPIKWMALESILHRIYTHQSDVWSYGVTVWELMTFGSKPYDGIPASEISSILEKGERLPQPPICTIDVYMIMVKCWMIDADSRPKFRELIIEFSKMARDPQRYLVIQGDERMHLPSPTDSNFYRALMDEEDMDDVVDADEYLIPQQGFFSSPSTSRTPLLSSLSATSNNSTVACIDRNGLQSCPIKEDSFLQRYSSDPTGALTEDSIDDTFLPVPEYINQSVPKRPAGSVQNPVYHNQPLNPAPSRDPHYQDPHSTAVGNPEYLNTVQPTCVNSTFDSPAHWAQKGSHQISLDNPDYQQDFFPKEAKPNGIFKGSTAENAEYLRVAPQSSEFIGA

Turning to `CN1CC[C@H](Oc2cc(-c3cnn(C)c3)cc3ncnc(Nc4ccc5ncsc5c4)c23)C1=O` (single isomer, unassigned) [Example 24], the half-maximal inhibitory concentration (IC50) on EGFR (d746-750) was no more than 10 nM; on EGFR L858R, no more than 10 nM; in test [1] it was 10.1 to 50 nM.
For `C[C@H]1CN(C)CCN1C(=O)Nc1cc2c(Nc3ccc4ncsc4c3)ncnc2cc1-c1ccn(C)n1` [Example 399, (S)-N-(4-(benzo[d]thiazol-6-ylamino)-7-(1-methyl-1H-pyrazol-3-yl)quinazolin-6-yl)-2,4-dimethylpiperazine-1-carboxamide], the IC50 (at EGFR (d746-750); on EGFR L858R; in test [1]) was no more than 10 nM in each case.
Regarding `COC[C@H](C)Oc1cc(N2CCN(C)CC2)cc2ncnc(Nc3ccc4ncsc4c3)c12` (single isomer, unassigned) [Example 205], the results for the half-inhibitory concentration (IC50) (on EGFR (d746-750); on EGFR L858R; in test [1]) were no more than 10 nM, no more than 10 nM and 10.1 to 50 nM, respectively.
In the case of `C[C@@H](Oc1cc(-c2cnn(C)c2)cc2ncnc(Nc3ccc4ncsc4c3)c12)C1CN(C)C1` (single isomer, unassigned) [Example 385], the IC50 (on EGFR (d746-750); on EGFR L858R; in test [1]) was no more than 10 nM in each case.
Take `Cn1cc(-c2cc(OCCN3CCC3)c3c(Nc4ccc5ncsc5c4)ncnc3c2)cn1` [Example 409, N-(5-(2-(azetidin-1-yl)ethoxy)-7-(1-methyl-1H-pyrazol-4-yl)quinazolin-4-yl)benzo[d]thiazol-6-amine]: the 50% inhibitory concentration (IC50) on EGFR (d746-750) is no more than 10 nM; at EGFR L858R, 10.1 to 50 nM; in test [1], 10.1 to 50 nM.
As to `COc1nn(C)cc1-c1cc(O[C@@H]2CN(C)C[C@H]2F)c2c(Nc3ccc4ncsc4c3)ncnc2c1` (racemic) [Example 376, N-(5-(((3S,4S)-4-fluoro-1-methylpyrrolidin-3-yl)oxy)-7-(3-methoxy-1-methyl-1H-pyrazol-4-yl)quinazolin-4-yl)benzo[d]thiazol-6-amine and N-(5-(((3R,4R)-4-fluoro-1-methylpyrrolidin-3-yl)oxy)-7-(3-methoxy-1-methyl-1H-pyrazol-4-yl)quinazolin-4-yl)benzo[d]thiazol-6-amine], the IC50 at EGFR (d746-750) was no more than 10 nM; on EGFR L858R it was no more than 10 nM; in test [1], 10.1 to 50 nM.
Turning to `Cn1cc(-c2cc(OCC(=O)N3CCC3)c3c(Nc4ccc5ncsc5c4)ncnc3c2)cn1` [Example 271, 1-(azetidin-1-yl)-2-((4-(benzo[d]thiazol-6-ylamino)-7-(1-methyl-1H-pyrazol-4-yl)quinazolin-5-yl)oxy)ethan-1-one], the concentration for half-maximal inhibition (IC50) at EGFR (d746-750) was no more than 10 nM; at EGFR L858R, no more than 10 nM; in test [1] it was 10.1 to 50 nM.
On to `CO[C@H]1COC[C@@H]1Oc1cc(-c2cnn(C)c2)cc2ncnc(Nc3ccc4ncsc4c3)c12` (single isomer, unassigned) [Example A32], for which the IC50 at EGFR (d746-750) was no more than 10 nM; at EGFR L858R, 10.1 to 50 nM; in test [1], 10.1 to 50 nM.
Turning to `COc1cc2ncnc(Nc3ccc4ncsc4c3)c2cc1-c1cnn([C@@H]2CCN(C)C[C@@H]2F)c1` (racemic) [Example 165, cis-N-(6-(1-((3R,4S)-3-fluoro-1-methylpiperidin-4-yl)-1H-pyrazol-4-yl)-7-methoxyquinazolin-4-yl)benzo[d]thiazol-6-amine], the IC50 (on EGFR (d746-750); on EGFR L858R; in test [1]) was no more than 10 nM each time.
Take `C[C@@H](Oc1cc(-c2cnn(C)c2)cc2ncnc(Nc3ccc4ncsc4c3)c12)[C@H](C)N(C)C` (single isomer, unassigned) [Example 144]: the IC50 was no more than 10 nM at EGFR (d746-750), 10.1 to 50 nM at EGFR L858R and 10.1 to 50 nM in test [1].
Regarding `Cn1cc(-c2cc(OC3CCN(CC(F)F)CC3)c3c(Nc4ccc5ncsc5c4)ncnc3c2)cn1` [Example 311, N-(5-((1-(2,2-difluoroethyl)piperidin-4-yl)oxy)-7-(1-methyl-1H-pyrazol-4-yl)quinazolin-4-yl)benzo[d]thiazol-6-amine], the IC50 (on EGFR (d746-750); at EGFR L858R; in test [1]) was no more than 10 nM each time.
In the case of `C[C@H](CN(C)C)Oc1cc(N2CC3CC(C2)O3)cc2ncnc(Nc3ccc4ncsc4c3)c12` [Example 177, N-(7-(6-oxa-3-azabicyclo[3.1.1]heptan-3-yl)-5-(((R)-1-(dimethylamino)propan-2-yl)oxy)quinazolin-4-yl)benzo[d]thiazol-6-amine], the half-inhibitory concentration (IC50) (on EGFR (d746-750); at EGFR L858R; in test [1]) was no more than 10 nM each time.
For `CN1CC[C@H](Oc2cc(-c3cnn(C)c3)cc3ncnc(Nc4ccc5ncsc5c4F)c23)C1=O` (single isomer, unassigned) [Example 72], the half-inhibitory concentration (IC50) (at EGFR (d746-750); at EGFR L858R; in test [1]) was no more than 10 nM each time.
Regarding `Cn1cc(-c2cc(OC3CCN(C4COC4)CC3)c3c(Nc4ccc5ncsc5c4F)ncnc3c2)cn1` [Example 315, 7-fluoro-N-(7-(1-methyl-1H-pyrazol-4-yl)-5-((1-(oxetan-3-yl)piperidin-4-yl)oxy)quinazolin-4-yl)benzo[d]thiazol-6-amine], the concentration for half-maximal inhibition (IC50) (at EGFR (d746-750); on EGFR L858R; in test [1]) was no more than 10 nM throughout.
On to `CN1CC[C@@H](Nc2cc3c(Nc4ccc5ncsc5c4)ncnc3cc2-c2cnn(C)c2)[C@H](F)C1` (single isomer, unassigned) [Example 325], for which the results for the IC50 (on EGFR (d746-750); on EGFR L858R; in test [1]) were no more than 10 nM, 10.1 to 50 nM and greater than 50.1 nM, respectively.
Taken in the same sequence, the figures for `C[C@@H](Oc1cc(-c2cnn(C)c2)cc2ncnc(Nc3ccc4ncsc4c3)c12)C(F)F` (single isomer, unassigned) [Example 52] were no more than 10 nM, no more than 10 nM and no more than 10 nM.
`COc1cc2ncnc(Nc3ccc4ncsc4c3)c2cc1NC(=O)N1C[C@H]2CCN(C)[C@H]2C1` [Example 251, (3aR,6aR)-N-(4-(benzo[d]thiazol-6-ylamino)-7-methoxyquinazolin-6-yl)-1-methylhexahydropyrrolo[3,4-b]pyrrole-5(1H)-carboxamide]: the figures for the IC50 (on EGFR (d746-750); on EGFR L858R; in test [1]) were no more than 10 nM, no more than 10 nM and 10.1 to 50 nM, respectively.
With `Cn1cc(-c2cc(O[C@@H]3CC[C@@H]3O)c3c(Nc4ccc5ncsc5c4)ncnc3c2)cn1` (single isomer, unassigned) [Example A51], the IC50 (on EGFR (d746-750); on EGFR L858R; in test [1]) was no more than 10 nM throughout.
As for `CN1CCN(C(=O)COc2cc(-c3cnn(C)c3)cc3ncnc(Nc4ccc5ncsc5c4F)c23)CC1` [Example 275, 2-((4-((7-fluorobenzo[d]thiazol-6-yl)amino)-7-(1-methyl-1H-pyrazol-4-yl)quinazolin-5-yl)oxy)-1-(4-methylpiperazin-1-yl)ethan-1-one], the half-maximal inhibitory concentration (IC50) was no more than 10 nM at EGFR (d746-750), no more than 10 nM at EGFR L858R and 10.1 to 50 nM in test [1].
With `Cn1cc(-c2cc(OC[C@@H]3CCCO3)c3c(Nc4ccc5ncsc5c4)ncnc3c2)cn1` [Example 32, (S)-N-(7-(1-methyl-1H-pyrazol-4-yl)-5-((tetrahydrofuran-2-yl)methoxy)quinazolin-4-yl)benzo[d]thiazol-6-amine], the IC50 is no more than 10 nM on EGFR (d746-750), no more than 10 nM at EGFR L858R and 10.1 to 50 nM in test [1].
Consider `C[C@H](CO)Oc1cc(N2CCN(C)CC2)cc2ncnc(Nc3ccc4ncsc4c3)c12` (single isomer, unassigned) [Example 293], for which the IC50 on EGFR (d746-750) was no more than 10 nM; at EGFR L858R, no more than 10 nM; in test [1] it was 10.1 to 50 nM.
